According to the NIST ThermoML archive (doi:10.1021/je0340809):

Test: xn = mol fraction of the nth substance listed
Conditions: 101.3 kPa, Liquid

O=C1CCCN1 [2-pyrrolidinone] + O
Conditions | mass density [kg/m3] | speed of sound [m/s] | viscosity [mPa·s]
298.15 K, x2 = 0.0549 | 1106.53 | 1637.8 | 13.02
298.15 K, x2 = 0.1506 | 1105.77 | 1641.1 | 12.29
298.15 K, x2 = 0.2552 | 1104.43 | 1662 | 11.77
298.15 K, x2 = 0.35 | 1102.41 | 1691.1 | 11.32
298.15 K, x2 = 0.4496 | 1099.53 | 1711.7 | 10.63
298.15 K, x2 = 0.5 | 1097.71 | 1717.9 | 10.13
298.15 K, x2 = 0.5566 | 1095.2 | 1723.5 | 9.408
298.15 K, x2 = 0.6422 | 1089.78 | 1728.3 | 8.014
298.15 K, x2 = 0.7532 | 1077.07 | 1730.9 | 5.772
298.15 K, x2 = 0.8516 | 1056.03 | 1715.4 | 3.645
298.15 K, x2 = 0.8714 | 1050.24 | 1704.6 | 3.231
298.15 K, x2 = 0.8856 | 1045.71 | 1694.1 | 2.94
298.15 K, x2 = 0.9 | 1040.8 | 1681 | 2.651
298.15 K, x2 = 0.9249 | 1031.48 | 1650.9 | 2.171
298.15 K, x2 = 0.9369 | 1026.61 | 1632.7 | 1.948
298.15 K, x2 = 0.9526 | 1019.88 | 1605.5 | 1.667
298.15 K, x2 = 0.9651 | 1014.21 | 1580.7 | 1.451
298.15 K, x2 = 0.9748 | 1009.64 | 1559.8 | 1.29
298.15 K, x2 = 0.9906 | 1001.87 | 1522.6 | 1.036
308.15 K, x2 = 0.0549 | 1098.69 | 1609.2 | 8.624
308.15 K, x2 = 0.1506 | 1097.66 | 1618.7 | 8.126
308.15 K, x2 = 0.2552 | 1095.98 | 1635.9 | 7.761
308.15 K, x2 = 0.35 | 1093.81 | 1657.3 | 7.452
308.15 K, x2 = 0.4496 | 1090.94 | 1679 | 6.988
308.15 K, x2 = 0.5 | 1089.17 | 1688.1 | 6.657
308.15 K, x2 = 0.5566 | 1086.76 | 1696.7 | 6.188
308.15 K, x2 = 0.6422 | 1081.57 | 1706.4 | 5.289
308.15 K, x2 = 0.7532 | 1069.46 | 1711.6 | 3.853
308.15 K, x2 = 0.8516 | 1049.57 | 1695.1 | 2.489
308.15 K, x2 = 0.8714 | 1044.11 | 1686.1 | 2.224
308.15 K, x2 = 0.8856 | 1039.85 | 1677.9 | 2.038
308.15 K, x2 = 0.9 | 1035.22 | 1667.7 | 1.852
308.15 K, x2 = 0.9249 | 1026.46 | 1645 | 1.544
308.15 K, x2 = 0.9369 | 1021.88 | 1631.3 | 1.401
308.15 K, x2 = 0.9526 | 1015.55 | 1610.1 | 1.22
308.15 K, x2 = 0.9651 | 1010.22 | 1590.4 | 1.082
308.15 K, x2 = 0.9748 | 1005.91 | 1573.1 | 0.977
308.15 K, x2 = 0.9906 | 995.75 | 1540.9 | 0.812
318.15 K, x2 = 0.0549 | 1090.54 | 1570 | 6.104
318.15 K, x2 = 0.1506 | 1089.51 | 1576.7 | 5.778
318.15 K, x2 = 0.2552 | 1087.87 | 1589.9 | 5.543
318.15 K, x2 = 0.35 | 1085.69 | – | 5.344
318.15 K, x2 = 0.4496 | 1082.75 | – | 5.034
318.15 K, x2 = 0.5 | 1080.94 | – | 4.807
318.15 K, x2 = 0.5566 | 1078.51 | 1650.3 | 4.48
318.15 K, x2 = 0.6422 | 1073.38 | 1663.9 | 3.845
318.15 K, x2 = 0.7532 | 1061.72 | 1678.2 | 2.823
318.15 K, x2 = 0.8516 | 1042.81 | 1675 | 1.852
318.15 K, x2 = 0.8714 | 1037.63 | 1669.5 | 1.663
318.15 K, x2 = 0.8856 | 1033.59 | 1664 | 1.53
318.15 K, x2 = 0.9 | 1029.21 | 1656.8 | 1.398
318.15 K, x2 = 0.9249 | 1020.9 | 1639.6 | 1.179
318.15 K, x2 = 0.9369 | 1016.57 | 1628.8 | 1.078
318.15 K, x2 = 0.9526 | 1010.57 | 1611.8 | 0.95
318.15 K, x2 = 0.9651 | 1005.52 | 1595.5 | 0.851
318.15 K, x2 = 0.9748 | 1001.44 | 1581.1 | 0.778
318.15 K, x2 = 0.9906 | 995.2 | 1553.7 | 0.662
328.15 K, x2 = 0.0549 | 1082.33 | 1556 | 4.562
328.15 K, x2 = 0.1506 | 1081.2 | 1562.4 | 4.323
328.15 K, x2 = 0.2552 | 1079.48 | 1574.8 | 4.147
328.15 K, x2 = 0.35 | 1077.27 | 1592.4 | 4
328.15 K, x2 = 0.4496 | 1074.29 | 1612.3 | 3.772
328.15 K, x2 = 0.5 | 1072.48 | 1621.7 | 3.605
328.15 K, x2 = 0.5566 | 1070.03 | 1631.3 | 3.364
328.15 K, x2 = 0.6422 | 1064.97 | 1644.8 | 2.895
328.15 K, x2 = 0.7532 | 1053.71 | 1659.9 | 2.143
328.15 K, x2 = 0.8516 | 1035.74 | 1660.2 | 1.427
328.15 K, x2 = 0.8714 | 1030.84 | 1656.2 | 1.288
328.15 K, x2 = 0.8856 | 1027.01 | 1652 | 1.191
328.15 K, x2 = 0.9 | 1022.85 | 1646.3 | 1.095
328.15 K, x2 = 0.9249 | 1014.98 | 1632.4 | 0.932
328.15 K, x2 = 0.9369 | 1010.86 | 1623.5 | 0.858
328.15 K, x2 = 0.9526 | 1005.16 | 1609.4 | 0.764
328.15 K, x2 = 0.9651 | 1000.35 | 1595.8 | 0.69
328.15 K, x2 = 0.9748 | 996.455 | 1583.8 | 0.637
328.15 K, x2 = 0.9906 | 989.833 | 1560.8 | 0.551
338.15 K, x2 = 0.0549 | 1070.16 | 1526.1 | 3.37
338.15 K, x2 = 0.1506 | 1069.05 | 1532.8 | 3.198
338.15 K, x2 = 0.2552 | 1067.4 | 1545 | 3.076
338.15 K, x2 = 0.35 | 1065.29 | 1562 | 2.973
338.15 K, x2 = 0.4496 | 1062.48 | 1581.5 | 2.81
338.15 K, x2 = 0.5 | 1060.76 | 1590.8 | 2.69
338.15 K, x2 = 0.5566 | 1058.45 | 1600.7 | 2.516
338.15 K, x2 = 0.6422 | 1053.71 | 1615.2 | 2.177
338.15 K, x2 = 0.7532 | 1043.28 | 1632.8 | 1.63
338.15 K, x2 = 0.8516 | 1026.75 | 1638.6 | 1.11
338.15 K, x2 = 0.8714 | 1022.24 | 1636.4 | 1.009
338.15 K, x2 = 0.8856 | 1018.73 | 1633.7 | 0.938
338.15 K, x2 = 0.9 | 1014.9 | 1629.8 | 0.867
338.15 K, x2 = 0.9249 | 1007.65 | 1619.7 | 0.749
338.15 K, x2 = 0.9369 | 1003.86 | 1613 | 0.695
338.15 K, x2 = 0.9526 | 998.592 | 1602.2 | 0.627
338.15 K, x2 = 0.9651 | 994.147 | 1591.6 | 0.574
338.15 K, x2 = 0.9748 | 990.543 | 1582 | 0.535
338.15 K, x2 = 0.9906 | 984.343 | 1563.7 | 0.473
